Measured values as given in US4272437A, “Antibacterial agents, and 4-thio azetidinone intermediates” (priority 1979, dated 1981).
Values after ≈ are worked out from the molar mass of the structure shown. Like-named read-outs stand apart in the source and are kept apart here.

Legend:
S. aureus A9537 = experiment: In vivo protection of mice, lethal infection with S. aureus A9537; conditions: Staphylococcus aureus, 2 treatments, read-out: PD50
Description: Representative compounds of the present invention were also tested in vivo in mice and their PD50 (dose of compound in mg/kg required to protect 50% of the treated mice against an otherwise lethal infection of a micro-organism) values determined with respect to the test organisms shown below.

[1] = tested on: Staph. aureus (Pen-Res) A-9606; experiment: MIC, tube dilution, Staphylococcus aureus A9606 (Pen-Res); format: cell-based; conditions: Staphylococcus aureus, Staph. aureus A9606 (Pen-Res); overnight 37° C.; read-out: Minimum Inhibitory Concentration (M.I.C.)
From the text: (§1) Representative compounds of the present invention were subjected to in vitro antibiotic screening against a variety of microorganisms.

[2] = tested on: Staph. aureus A-9537 and 50% serum; experiment: MIC, tube dilution, Staph. aureus A9537 + 50% serum; format: cell-based, Staphylococcus aureus; conditions: Staphylococcus aureus, overnight 37° C., read-out: Minimum Inhibitory Concentration (M.I.C.)
From the text: as §1

Proteus vulgaris A21559 = experiment: MIC, tube dilution, Proteus vulgaris A21559; format: cell-based; conditions: Proteus vulgaris, A21559, Proteus vulgaris A21559; overnight 37° C.; read-out: Minimum Inhibitory Concentration (M.I.C.)
From the text: as §1

In the case of `NCCCCC1=C(C(=O)O)N2C(=O)CC2S1` (stereo not shown) [Example 73, 2-(4'-Aminobutyl)-penem-3-carboxylic Acid], the ED50 (S. aureus A9537; A9537, im, IM, 1 × 10^6 organisms) was 0.2 mg/kg, the ED50 (S. aureus A9537; A9537, im, IM, 6.8 × 10^5 organisms) was 0.2 mg/kg and the ED50 (S. aureus A9537; A9537, im, IM, 8 × 10^5 organisms) was 0.2 mg/kg. The ED50 (S. aureus A9537; A9537, po, PO, 1 × 10^6 organisms) was 0.5 mg/kg, the MIC [1] was 32 µg/mL (≈ 132 µM) and the MIC [2] was 1 µg/mL. It also gave an MIC (Proteus vulgaris A21559) of 32 µg/mL (≈ 132 µM).
